# “And” between values parts separate entries of the source, which are not always exact repeats. Equal values may be shown once. “Also recorded” adds a separate entry of the source.
# Assays:
# caALK1 = biological target: T1, caALK1 (Homo sapiens, UniProt P37023, Q201D); experiment: caALK1-induced SMAD1/5 phosphorylation in HEK 293T cells; format: cell-based; details: cercosporamide 1-10 µM, LDN193189 200 nM
# T1 construct: expressed in transfected cells; host or cells: HEK 293T
# Text: (§1) HepG2 or HEK 293T cells were lysed in Laemmli sample buffer. Proteins were separated by sodium dodecyl sulfate polyacrylamide gel electrophoresis (SDS-PAGE) and transferred onto […] polyvinylidene difluoride (PVDF) membrane (IPVH00010, Merck Millipore). Membranes were blocked using 5% non-fat dry milk in Tris-buffered saline with 0.1% Tween 20 (655204, Merck Millipore) and probed with the respective primary and secondary antibodies. The signal was detected using Clarity™ Western ECL Substrate (1705060, Bio-Rad) and ChemiDoc Imaging System (17001402, Bio-Rad). The antibodies used for immunoblotting were raised against the following proteins: phospho-SMAD1/5/8 ([Persson et al., 1998]; 1:1000), SMAD1 (Cell Signaling Technology, #6944; 1:1000), GAPDH (Merck Millipore, #G8795; 1:5000) and hemagglutinin (HA; Roche, #12CA5; 1:1000).
# (§2) For experiments with the caALK type I receptor constructs, HEK 293T cells were seeded in 24-well plates at ∼90% confluency and transfected with the DNA expression constructs in the presence of PEI. Thirty hours after transfection, the cells were added to serum-starved medium and treated with compounds for 16 h (overnight). Subsequently, the cells were washed with PBS and lysed in Laemmli sample buffer. […]
# zebrafish embryos = experiment: in situ hybridization with krox20/myod probes in treated zebrafish embryos; format: in vivo, zebrafish (Danio rerio); details: 750 nM from 6 hpf, fixed at 12 hpf
# Protocol: Embryos were treated from approximately 6 hpf until 12 hpf when they were fixed in 4% paraformaldehyde overnight. In situ hybridization was performed using krox20 and myod anti-sense RNA probes as described elsewhere ([Thisse and Thisse, 2008]).
# caALK5 = biological target: T2, caALK5 (Homo sapiens, UniProt P36897, T204D); experiment: caALK5-induced SMAD phosphorylation in HEK 293T cells; format: cell-based; details: 1, 5, 10 µM
# T2 construct: expressed in transfected cells; host or cells: HEK 293T
# T2 sequence (P36897 34-503 T204D): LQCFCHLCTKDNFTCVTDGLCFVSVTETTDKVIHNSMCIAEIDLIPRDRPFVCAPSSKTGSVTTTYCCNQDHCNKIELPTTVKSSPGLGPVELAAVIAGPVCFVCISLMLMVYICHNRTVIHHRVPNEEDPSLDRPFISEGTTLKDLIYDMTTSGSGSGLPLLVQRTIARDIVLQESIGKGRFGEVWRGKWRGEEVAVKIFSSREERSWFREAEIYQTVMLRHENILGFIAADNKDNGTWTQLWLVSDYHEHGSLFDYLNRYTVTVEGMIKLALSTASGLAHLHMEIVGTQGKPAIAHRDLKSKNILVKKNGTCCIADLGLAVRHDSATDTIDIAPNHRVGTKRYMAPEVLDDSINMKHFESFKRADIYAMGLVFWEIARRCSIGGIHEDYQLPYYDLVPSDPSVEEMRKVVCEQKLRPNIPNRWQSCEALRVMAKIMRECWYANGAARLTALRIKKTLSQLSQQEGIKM
# Text: as §1, §2
# [1] = test system: MEK and anaplastic lymphoma kinase (ALK) versus ALK serine/threonine kinases; experiment: kinase panel: sensitivity of control kinases relative to ALK serine/threonine kinases; format: biochemical, human; details: ratio of IC50 values
# Protocol: IC50 values were calculated using Prism 5.04 for Windows (GraphPad, San Diego, CA, USA; www.graphpad.com). The mathematical model used was ‘Sigmoidal response (variable slope)’ with parameters ‘top’ fixed at 100% and ‘bottom’ at 0%. The fitting method used was a least-squares fit.
# [2] = biological target: T3, anaplastic lymphoma kinase (ALK wt, GST-HIS-tag) (Homo sapiens, UniProt Q9UM73); experiment: radiometric protein kinase assay, anaplastic lymphoma kinase; format: biochemical; details: Fig. 7A
# T3 construct: GST; His; purchased ProQinase GmbH (Freiburg, Germany); host or cells: bacteria (so in the source)
# ACV-R1B (ALK4) = biological target: T4, ACV-R1B (ALK4) (Homo sapiens, UniProt P36896); experiment: radiometric protein kinase assay, ALK4; format: biochemical; details: [ATP] = 1 μM; Fig. 7C
# T4 construct: purchased ProQinase GmbH (Freiburg, Germany); host or cells: bacteria (so in the source)
# T4 sequence (P36896 24-505): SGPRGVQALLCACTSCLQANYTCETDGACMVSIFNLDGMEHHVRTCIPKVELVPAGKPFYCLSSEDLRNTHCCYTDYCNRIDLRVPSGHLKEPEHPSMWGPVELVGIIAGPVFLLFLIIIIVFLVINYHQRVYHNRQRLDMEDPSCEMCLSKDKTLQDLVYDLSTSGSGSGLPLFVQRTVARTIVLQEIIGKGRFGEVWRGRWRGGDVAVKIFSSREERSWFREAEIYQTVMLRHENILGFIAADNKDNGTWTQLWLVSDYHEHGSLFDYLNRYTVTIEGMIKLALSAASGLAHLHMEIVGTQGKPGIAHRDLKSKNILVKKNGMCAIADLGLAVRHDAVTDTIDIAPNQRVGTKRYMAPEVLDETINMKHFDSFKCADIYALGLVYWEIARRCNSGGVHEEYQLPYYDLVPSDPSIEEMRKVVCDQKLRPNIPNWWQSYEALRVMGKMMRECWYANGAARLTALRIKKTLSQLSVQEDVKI
# ACV-RL1 (ALK1) = biological target: T5, ACV-RL1 (ALK1) (Homo sapiens, UniProt P37023); experiment: radiometric protein kinase assay, ALK1; format: biochemical; details: [ATP] = 1 μM; Fig. 7D
# T5 construct: purchased ProQinase GmbH (Freiburg, Germany); host or cells: bacteria (so in the source)
# caAlk2 = experiment: rescue of caAlk2 mRNA-induced developmental defects in zebrafish embryos; format: in vivo; details: examined at 48 hpf
# Protocol: The pCS2+ plasmid encoding caAlk2 with a glutamine to aspartic acid substitution at position 204 was kindly donated by Jeroen Bakkers ([Smith et al., 2009]). The DNA sequences of the inserts in plasmid constructs were verified. Both plasmids were digested with NotI and mRNA was generated with SP6 RNA polymerase using a mMessage mMachine kit (Ambion). The mRNA was purified through phenol/isoamylalcohol/chloroform extraction. Zebrafish embryos were injected into the yolk at the one-cell stage with ∼1 nl of either 50 ng/µl GFP mRNA or a cocktail containing 10 ng/µl caAlk2 and 50 ng/µl GFP mRNA. […] Next, embryos were selected for fluorescence at 24 hpf and examined at 48 hpf. The phenotypes were categorized into three groups: no head; head, no eyes; head and eyes. Finally, the bar graph was generated using Prism 8.3.0 for Windows (GraphPad, San Diego, CA, USA). The presented data are a combination of two repeats of the experiment.
# T3 sequence (Q9UM73 19-1620): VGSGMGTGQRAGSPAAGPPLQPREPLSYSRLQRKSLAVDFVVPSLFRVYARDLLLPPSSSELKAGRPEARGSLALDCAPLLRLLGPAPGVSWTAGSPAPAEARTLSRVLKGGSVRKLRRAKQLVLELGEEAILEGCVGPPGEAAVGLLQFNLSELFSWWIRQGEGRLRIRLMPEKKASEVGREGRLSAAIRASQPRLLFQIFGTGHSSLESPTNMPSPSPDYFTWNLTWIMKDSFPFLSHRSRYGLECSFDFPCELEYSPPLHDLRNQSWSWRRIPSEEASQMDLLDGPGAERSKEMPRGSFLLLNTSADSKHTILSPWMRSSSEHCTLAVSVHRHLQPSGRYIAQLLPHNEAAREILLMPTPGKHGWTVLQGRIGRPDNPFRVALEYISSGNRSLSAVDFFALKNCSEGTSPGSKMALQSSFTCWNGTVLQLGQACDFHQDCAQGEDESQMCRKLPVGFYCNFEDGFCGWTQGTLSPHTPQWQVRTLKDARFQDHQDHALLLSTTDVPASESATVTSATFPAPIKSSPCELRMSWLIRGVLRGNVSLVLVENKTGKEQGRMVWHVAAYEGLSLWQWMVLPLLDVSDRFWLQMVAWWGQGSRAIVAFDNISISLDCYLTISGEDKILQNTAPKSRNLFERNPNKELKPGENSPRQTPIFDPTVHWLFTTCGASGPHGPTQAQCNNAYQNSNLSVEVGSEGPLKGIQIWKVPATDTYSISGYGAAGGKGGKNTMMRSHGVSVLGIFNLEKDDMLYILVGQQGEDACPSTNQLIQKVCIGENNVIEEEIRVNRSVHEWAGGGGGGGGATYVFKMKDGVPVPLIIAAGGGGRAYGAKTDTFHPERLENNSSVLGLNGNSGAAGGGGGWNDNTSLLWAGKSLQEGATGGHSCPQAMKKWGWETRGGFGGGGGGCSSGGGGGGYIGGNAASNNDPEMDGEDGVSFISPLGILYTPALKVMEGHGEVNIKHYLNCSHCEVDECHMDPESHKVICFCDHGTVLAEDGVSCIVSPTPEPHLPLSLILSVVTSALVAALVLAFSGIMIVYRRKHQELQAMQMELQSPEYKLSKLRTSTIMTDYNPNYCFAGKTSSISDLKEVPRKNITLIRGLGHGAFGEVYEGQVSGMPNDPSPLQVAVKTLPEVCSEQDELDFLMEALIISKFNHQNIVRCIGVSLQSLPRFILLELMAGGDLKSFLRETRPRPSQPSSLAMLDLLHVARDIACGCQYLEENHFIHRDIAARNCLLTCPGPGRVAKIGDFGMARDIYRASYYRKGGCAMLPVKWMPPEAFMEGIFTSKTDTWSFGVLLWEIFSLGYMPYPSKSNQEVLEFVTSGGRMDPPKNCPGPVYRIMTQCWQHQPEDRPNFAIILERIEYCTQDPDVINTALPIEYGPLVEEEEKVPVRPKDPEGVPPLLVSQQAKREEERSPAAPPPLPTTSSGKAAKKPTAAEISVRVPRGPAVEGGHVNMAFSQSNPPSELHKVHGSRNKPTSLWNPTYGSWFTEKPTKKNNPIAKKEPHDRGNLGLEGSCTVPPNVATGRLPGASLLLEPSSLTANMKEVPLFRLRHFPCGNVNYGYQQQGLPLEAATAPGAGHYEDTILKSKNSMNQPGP
# T1 sequence (P37023 22-503 Q201D): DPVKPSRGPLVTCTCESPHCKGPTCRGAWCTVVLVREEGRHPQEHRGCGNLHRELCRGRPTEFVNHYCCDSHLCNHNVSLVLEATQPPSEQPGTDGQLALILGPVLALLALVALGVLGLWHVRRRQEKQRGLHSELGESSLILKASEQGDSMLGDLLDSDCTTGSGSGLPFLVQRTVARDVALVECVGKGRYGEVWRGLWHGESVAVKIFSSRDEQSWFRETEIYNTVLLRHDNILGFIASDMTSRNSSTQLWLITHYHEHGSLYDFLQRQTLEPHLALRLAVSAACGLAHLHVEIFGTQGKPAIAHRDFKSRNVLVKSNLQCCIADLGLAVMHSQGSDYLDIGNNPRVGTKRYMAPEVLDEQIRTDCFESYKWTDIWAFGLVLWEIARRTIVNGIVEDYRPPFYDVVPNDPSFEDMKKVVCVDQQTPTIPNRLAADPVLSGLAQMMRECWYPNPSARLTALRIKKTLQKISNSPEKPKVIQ
# T5 sequence (P37023 22-503): as the sequence (P37023 22-503 Q201D) above, with D180Q counted along it
smiles,measurement,setting,value
"CC(=O)C1=C(O)C=C2Oc3c(C(N)=O)c(O)cc(O)c3[C@]2(C)C1=O [cercosporamide, Cercosporamide]",effect on caALK1-induced SMAD1/5 phosphorylation,caALK1,inhibited SMAD1/5 phosphorylation
same,krox20 expression pattern,zebrafish embryos,induced lateral expression of krox20
same,fraction of embryos showing the pattern,zebrafish embryos; one fraction per depicted pattern,7/15 and 6/15 and 2/15
same,effect on caALK5-induced SMAD1/5 phosphorylation,caALK5,not inhibited; also recorded: only weakly inhibited
same,MEK and tyrosine kinase ALK less sensitive than the ALK serine/threonine kinases,[1],7- to 67 fold
same,IC50,[2],10000 nM
same,IC50,ACV-R1B (ALK4),0.15 µM
same,IC50,ACV-RL1 (ALK1),3.3 µM
same,caAlk2-injected embryos that developed a head with eyes,caAlk2; 100 nM from 2 hpf onwards,58%
same,caAlk2-injected embryos that developed a head with eyes,caAlk2; 200 nM from 2 hpf onwards,86%
